In PMC8838982 (Bioorganic chemistry, 2021):
Where two headings read alike, the source gives them in different places.

Experiments:
[1] = biological target: influenza virus polymerase (Influenza A virus, UniProt P03433); assay: cell-based; assay type: cell-based, influenza virus A/PR/8/34
[2] = biological target: Pandemic H1N1 N-terminal PA endonuclease (PAN) (Influenza A virus, UniProt C3W5S0); assay: FRET-based; assay type: biochemical
[3] = Inhibition of polymerase activity EC50
[4] = read-out: Inhibition of polymerase activity EC50

O=C1c2c(ccc(O)c2O)CN1Cc1ccccc1 [Compound 14, 2-benzyl-6,7-dihydroxyisoindolin-1-one]
EC50 [1, 3]: 12 µM | IC50 [2]: 0.023 to 0.046 µM

O=C1c2c(ccc(O)c2O)CN1Cc1ccc(F)c(Cl)c1 [Compound 15, 2-(3-chloro-4-fluorobenzyl)-6,7-dihydroxyisoindolin-1-one]
EC50/IC50 ratio (cellular versus enzyme assay) [1]: 145 | EC50 [1, 3]: 3.6 µM | IC50 [2]: 0.023 to 0.046 µM

Cc1ccc(CN2Cc3ccc(O)c(O)c3C2=O)cc1 [Compound 16, 2-(4-methylbenzyl)-6,7-dihydroxy-isoindolin-1-one]
EC50 [1, 4]: 4.1 µM

O=C1c2c(ccc(O)c2O)CN1Cc1ccc(O)cc1 [Compound 17, 2-(4-hydroxybenzyl)-6,7-dihydroxy-isoindolin-1-one]
Fold increase in EC50 compared to wild-type [1]: 1.0 fold | EC50 [1, 3]: 4.2 µM | IC50 [2]: 0.023 to 0.046 µM

O=C1c2c(ccc(O)c2O)CN1Cc1ccc(F)cc1 [Compound 18, 2-(4-fluorobenzyl)-6,7-dihydroxyisoindolin-1-one]
EC50 [1, 3]: 8.2 µM | IC50 [2]: 0.023 to 0.046 µM

O=C1c2c(ccc(O)c2O)CN1Cc1ccc(C(F)(F)F)cc1 [Compound 19, 2-(4-(trifluoromethyl)benzyl)-6,7-dihydroxy-isoindolin-1-one]
EC50 [1, 3]: 19 µM | Reduction of PAN inhibitory activity compared to the 4-F analogue 18 ([2]; factor, relative to 18): 9 fold

O=C1c2c(ccc(O)c2O)CN1Cc1ccc([N+](=O)[O-])cc1 [Compound 20, 2-(4-nitrobenzyl)-6,7-dihydroxy-isoindolin-1-one]
EC50 [1, 3]: 28 µM | IC50 [2]: 0.023 to 0.046 µM

O=C1c2c(ccc(O)c2O)CN1Cc1ccc2ccccc2c1 [Compound 21, 2-(naphthalen-2-ylmethyl)-6,7-dihydroxy-isoindolin-1-one]
EC50 [1, 3]: 5.4 µM | IC50 [2]: 0.03 µM

O=C1c2c(ccc(O)c2O)CN1Cc1cccc2ccccc12 [Compound 22, 2-(naphthalen-1-ylmethyl)-6,7-dihydroxy-isoindolin-1-one]
EC50 [1, 3]: 26 µM

O=C1c2c(ccc(O)c2O)CN1CCc1ccc(O)cc1 [Compound 23, 2-(4-hydroxyphenethyl)-6,7-dihydroxy-isoindolin-1-one]
EC50 [1, 4]: 19 µM

NC(=O)c1ncn([C@@H]2O[C@H](CO)[C@@H](O)[C@H]2O)n1 [Ribavirin, ribavirin]
EC50 [1, 3]: 11 µM

baloxavir acid [BXA]
Fold increase in EC50 compared to wild-type [1]: 1.0 fold | EC50 [1, 4]: 0.0016 µM
